According to patent US20100285583A1, “COMPOUNDS AND METHODS FOR INHIBITING PLATELET AGGREGATION” (priority 2009, published 2010):

Tests used:
N-PTB domain = target: T1, N-PTB domain (Homo sapiens, UniProt P98082, A82R); experiment: Protein-lipid overlay competition assay; type: binding; conditions: pre-incubation with 10-fold excess of lipid
T1 construct: The N-PTB domain (residues 1-241) cDNA construct was cloned into a pGEX6P1 vector; made in house; host or cells: E. coli Rosetta
T1 sequence (P98082 1-241 A82R): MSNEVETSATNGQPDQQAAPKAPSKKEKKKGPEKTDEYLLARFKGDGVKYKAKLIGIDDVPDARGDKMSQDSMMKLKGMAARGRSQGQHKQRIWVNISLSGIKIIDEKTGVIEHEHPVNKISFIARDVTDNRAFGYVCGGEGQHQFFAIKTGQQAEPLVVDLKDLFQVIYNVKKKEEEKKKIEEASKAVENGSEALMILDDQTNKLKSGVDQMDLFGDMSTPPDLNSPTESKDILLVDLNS
Method: Membrane strips (SphingoStrips™) spotted with 100 pmol of sphingolipids were purchased from Echelon Research Laboratories. Membrane strips were incubated with 0.1 μg/ml of the Dab2 PTB domain or its mutants in 20 mM Tris-HCl (pH 8.0), 150 mM NaCl, 0.1% Tween-20 and 3% fatty acid-free bovine serum albumin overnight at 4° C. Following four washes with the same buffer, proteins bound to the membrane strips were probed with rabbit anti-GST antibody (Santa Cruz Biotech). Donkey anti rabbit-horse radish peroxidase (HRP) antibody was obtained from GE Healthcare. Detection was carried out using ECL reagent (Pierce). Also, lipid strips were prepared by spotting 1 μl of either sulfatides or PtdIns(4,5)P2 dissolved in chloroform:methanol:water (1:2:0.8 and 65:35:8, respectively) onto Hybond-C extra membranes (GE Healthcare) and protein binding was monitored as described above. Bound protein was quantified using the AlphaImager program and binding was calculated as a percentage of GST-PTB binding to 100 pmoles of spotted lipid.
We next asked whether sulfatides and PtdIns(4,5)P2 compete with each other for binding to the N-PTB domain using a protein-lipid overlay competition assay. […] This observation was further confirmed by competing sulfatides and PtdIns(4,5)P2 for N-PTB domain binding using SPR. […]

[1] = tested on: T2, Dab2 N-terminal phosphotyrosine binding domain (N-PTB, residues 1-241 of human Disabled-2), wild type
T2 sequence: T1 sequence (P98082 1-241 A82R)

Human washed platelets = experiment: Platelet immunofluorescence analysis (subcellular localization); type: cell-based; conditions: activated platelets in presence of inhibitor
Method: Washed platelets (50 μl of […] in Tyrode's albumin buffer) were incubated with 1.9 μM of PTB domain constructs for 5 min at room temperature in the presence of 0.25 g/L fibrinogen. Aggregation was initiated by the addition of 10 μM TRAP. Reactions were incubated at room temperature unless otherwise indicated. Platelets were fixed with 0.4 mL of 3.7% formaldehyde in Phosphate Buffered Saline (PBS) for 30 min. Next, 20% goat serum was added to the fixed platelets, and 60% of the total fixed reaction was centrifuged using a Shandon cytospinner onto a Shandon coated cytoslide to achieve the appropriate platelet density for analysis. Slides were then washed twice with PBS for 10 min. Platelets were permeabilized with 0.5% Triton X-100 in PBS for 10 min and then blocked with 20% goat serum in PBS with 0.1% Triton X-100 for 1 h at room temperature. Platelets were washed 3 times with PBS with 0.1% Triton for 10 minutes and further incubated overnight with the anti-Dab2 antibody 1:100 (anti-p96; BD Transduction) in PBS with 0.1% Triton X-100 and 10% goat serum at 4° C. in a humidity chamber. Platelets were then washed and incubated with the anti-mouse Cy-3 conjugated goat antibody 1:250 and Alexa488 conjugated phalloidin (25 μg/mL) in PBS with 0.1% Triton X-100 and 10% goat serum for 2 h. Platelets were washed again and observed on an Olympus IX71 microscope using the Softworx Applied Precision software.
Mean pixel intensity was determined for 400 platelets from four fields each for 3 min and 10 min of treatments by manually drawing circles around individual platelets using the 2D Polygon tool in the Softworx software. For each time point, a threshold of significant mean pixel intensity was defined for the experiment. The percentage of countable platelets to exceed the threshold was calculated for each field and the average of four fields was computed with standard deviation. The ratio of internalization:binding is the quotient of these averages for a treatment.

“phosphatidylinositol 4,5-bisphosphate [PtdIns(4,5)P2]” was tested, and the “reduction of sulfatide binding of N-PTB domain” value (N-PTB domain) was “at least 60%”.
For thrombin, the “thrombin proteolysis of the N-PTB domain (FIG. 3B)” value [1] was “thrombin cleaved the N-PTB domain leaving a ˜25 kW protease-resistant product”.
`CN(C)CCCN1c2ccccc2Sc2ccc(Cl)cc21` [chlorpromazine, reference compound] was tested, and the “effect on N-PTB domain internalization” value (Human washed platelets) was “inhibited”.
For `C=C1[C@@H](C)[C@H]2[C@H](Cc3ccccc3)NC(=O)[C@]23[C@H](OC(C)=O)/C=C/[C@@](C)(O)C(=O)[C@@H](C)C/C=C/[C@H]3[C@@H]1O` [cytochalasin D, reference compound], the “effect on N-PTB domain internalization” value (Human washed platelets) was “completely blocked N-PTB domain internalization”.
With `CCCCCCCCCCCCCCCC(=O)OC[C@H](COP(=O)(O)O[C@@H]1[C@H](O)[C@H](OP(=O)(O)O)[C@@H](O)[C@H](O)[C@H]1O)OC(=O)CCCCCCCCCCCCCCC` [PtdIns(3)P, phosphatidylinositol 3-phosphate] the “competition with sulfatide for PTB binding” value (N-PTB domain) was “did not compete”.
